Laboratory results as given in patent US8247183B2, “Compositions and methods for diagnosis and treatment of tumors” (The United States of America, as represented by the …, priority 2006, dated 2012).

Legend:
[1] = target: T1, Human MMP-9 (Homo sapiens, UniProt P14780); test: OPN cleavage assay with MMP-9 and MMP inhibitors; format: biochemical; conditions: Western blot after 1-hour digestion at 37° C.; EDTA 10 mM, MMP-9 inhibitor I 2 μM, TIMP-1 0.1 μM
T1 construct: purchased Calbiochem, CA
Experimental: OPN cleavage assays were performed as follows. Human MMP-9 (Calbiochem, CA) was incubated at 37° C. for 3 hours with recombinant human OPN (R&D systems, MN) at an optimized ratio (5:1 substrate:enzyme) in a buffered solution (200 mM NaCl, 5 mM CaCl, 50 mM Tris-C1, pH 7.5). Digested OPN was analyzed by 16% tris-glycine SDS-PAGE followed by colloidal coomassie blue staining (SimplyBlue™, Invitrogen, CA). Separate cleavage reactions (2 μg OPN) were transferred to PDVF membranes for amino-end terminal microsequencing.
For western blot analysis, MMP-9-digested OPN samples and whole cell lysates (50 μg) were transferred to 0.22 um PVDF membranes and probed with a polyclonal antibody generated to a 14-residue peptide just downstream of the residue 169 thrombin cleavage site ([sequence]; amino acids 169-183 of SEQ ID NO: 2) (Abcam, MA). HEK-293 cell lysates were probed with an anti-FLAG antibody (Sigma, Mo.). Immuno-reactive proteins were detected by chemilluminescence (ECL, GE Healthcare Life Sciences, NJ).

[2] = system: SMMC-7721 SC2 cells; test: Matrigel invasion assay with short overlapping peptides of OPN-5kD; format: cell-based, human; conditions: 36 hours; for effect on OPN-5kD induced invasion, separate addition: in conjunction with OPN-5kD, 1:1 molar, 2 μM each; for cellular invasion relative to media alone treated cells: peptide alone, 2 μM, p<0.05
From the text: A 44 residue peptide corresponding to the OPN-5kD fragment (SEQ ID NO: 4), was synthesized and purified >97% by HPLC (EZBiolabs, IN). A series of short peptides spanning the region of residues 167-210 of OPN (SEQ ID NO: 2) were generated as follows. Eight small overlapping peptides spanning the OPN-5kD peptide were similarly synthesized to >75% purity (p1=[…], amino acids 167-176 of SEQ ID NO: 2; p2=[…], amino acids 172-181 of SEQ ID NO: 2; p3=[…], amino acids 177-186 of SEQ ID NO: 2; p4=[…], amino acids 182-191 of SEQ ID NO: 2; p5=[…], amino acids 187-196 of SEQ ID NO: 2; p6=[…], amino acids 192-201 of SEQ ID NO: 2; p7=[…], amino acids 197-206 of SEQ ID NO: 2; and p8=[…] amino acids 202-210 of SEQ ID NO: 2) (EZBiolabs, IN). The lyophilized peptides were resuspended in PBS and applied with cells to the upper wells of Matrigel invasion chambers at equal molar concentrations (2 μM). Invading cells were measured after 36 hours following calcein incorporation as described in the examples above.

[3] = system: SMMC-7721-SC2 cells; test: Cellular adhesion with exogenous intact or MMP-9 cleaved OPN; format: cell-based, human; conditions: GRGDS peptide 400 μM; OPN 250 nM
Experimental: Cellular adhesion was measured using the following methods. SMMC-7721-SC2 cells were seeded into the wells of a 96-well fluorescent-read plate in serum-free media (6×10^4 cells/well) with human OPN (0-250 nM) with or without prior digestion by MMP-9. Media and MMP-9 alone treated cells were included as controls. A GRGDS blocking peptide (400 μM) was added to separate media control, intact OPN, and MMP-9 cleaved OPN (250 nM) conditions. Non-adherent cells were removed with a PBS wash (100 μl) after one hour and adherent cells were quantified by CyQuant GR dye incorporation (Molecular Probes, OR) and detection at EX485, EM530.

[4] = system: SMMC-7721-SC2 cells; test: Migration assay of cells transfected with OPN constructs; format: cell-based, human; conditions: vector controls, 24, 36, 48 hours
Experimental: (§1) Migration and invasion assays were performed as follows. Transfected SMMC-7721-SC2 cells (transfected with 5 μg plasmid DNA) were allowed to recover in 5% serum containing media and were re-counted prior to dilution in serum-free media. Cells were seeded (5×10^4) into the upper chambers of Matrigel coated 8 um pore membranes (HTSTM Fluoroblok tumor invasion system, BD Biosciences, MA) or uncoated […] pore membranes (HTSTM Fluoroblok insert system, BD Biosciences, MA). Media containing serum (5%) was added to the lower chambers as a chemotactic agent. Blocking antibodies to either the integrin αVβ3 receptor (clone LM609, Chemicon, CA) or a common determinant of the CD44 receptors (clone A020, Calbiochem, CA) were added to the upper chambers (4 μg/ml) at the time of cell seeding. Migrated cells were labeled with calcein AM (Molecular Probes, OR) at 37° C. for 1 hour, and fluorescence was measured at 24, 36, and 48 hours (EX 490 nm, EM 530 nm).

[5] = system: SMMC-7721-SC2 cells; test: Adhesion of cells transfected with OPN expression constructs; format: cell-based, human; conditions: 30-60 minutes
Experimental: To determine the affect of OPN fragments on adhesion, the following methods were used. SMMC-7721-SC2 cells (1×10^6) were trypsinized (E-PET, Biosource, CA) and transfected with the four OPN expression constructs shown in FIG. 3A and empty vector DNA (5 μg) (50-60% efficiency) using optimized conditions (Nucleofection, AMAXA, MD) and plated to 6-well plates. After a 24-hour recovery period, the cells were trypsinized and seeded by equal numbers (6×10^4) into fluorescent-read 96-well plates in serum-free media. Non-adherent cells were removed with a PBS wash after 2-60 minutes and fluorescence was quantified at EX485, EM530.

[6] = system: SMMC-7721-SC2 cells; test: Matrigel invasion assay (OPN constructs, blocking antibodies, OPN-5kD peptide); format: cell-based, human; conditions: 36 hours
Experimental: as §1
Cell invasion was measured as described in Example 4. Briefly, each of the OPN vectors shown in FIG. 3A (5 μg) were separately transfected into SMMC-7721 cells (1×10^6) using optimized conditions (Nucleofection, AMAXA). […] After 36 hours, the invaded cells were labeled with calcein at 37° C. for 1 hour and fluorescence was measured (EX485, EM530).
To determine the effect of blocking antibodies to the integrin aV133 and CD44 receptors on the affect of invasion of HCC cells expression OPN full-length or OPN-5 kD, integrin αVβ3 (Chemicon, CA) or CD44 (Calbiochem, CA) blocking antibodies were added (4 μg/ml) to cells transiently expressing OPN full-length and OPN-5kD. Invading cells were measured at 36 hours following calcein incorporation as described above.
To determine the effect of varying concentrations of the OPN-5kD peptide on invasion of HCC cells, SMMC-7721 cells were exposed to increasing concentrations of the OPN-5kD peptide (0.4 μM, 1 μM and 2 μM) and invading cells were measured after 36 hours following calcein incorporation as described above. […]

T1 sequence (P14780 94-707): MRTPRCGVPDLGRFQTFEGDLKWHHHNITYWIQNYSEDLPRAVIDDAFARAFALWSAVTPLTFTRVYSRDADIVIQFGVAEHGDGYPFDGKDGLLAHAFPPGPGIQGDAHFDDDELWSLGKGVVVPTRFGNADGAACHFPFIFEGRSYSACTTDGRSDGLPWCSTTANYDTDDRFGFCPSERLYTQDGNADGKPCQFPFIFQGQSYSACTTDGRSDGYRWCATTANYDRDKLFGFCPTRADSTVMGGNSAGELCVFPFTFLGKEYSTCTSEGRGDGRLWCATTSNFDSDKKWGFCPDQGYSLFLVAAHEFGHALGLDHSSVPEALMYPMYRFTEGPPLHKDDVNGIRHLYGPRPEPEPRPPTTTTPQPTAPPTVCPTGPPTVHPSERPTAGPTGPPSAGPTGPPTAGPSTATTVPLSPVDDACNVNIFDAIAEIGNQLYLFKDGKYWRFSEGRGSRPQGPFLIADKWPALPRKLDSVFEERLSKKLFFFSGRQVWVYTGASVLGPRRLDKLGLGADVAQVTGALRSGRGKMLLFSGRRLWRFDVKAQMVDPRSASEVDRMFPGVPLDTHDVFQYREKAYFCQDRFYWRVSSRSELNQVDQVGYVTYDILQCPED

Row | Molecule | effect on OPN-5kD induced invasion, separate addition [2] | cellular invasion relative to media alone treated cells [2] | SMMC-7721-SC2 migration relative to controls [4] | adhesion after transient over-expression relative to controls, later time points [5] | also measured
1 | O=C(O)CN(CCN(CC(=O)O)CC(=O)O)CC(=O)O [EDTA] | – | – | – | – | inhibition of MMP-9 cleavage of OPN (OPN-5kD fragment detection) [1]: partially inhibited
2 | ELNGAYKAIP (listed as Homo sapiens) [p7] | partial reduction in invasion | suppressive effect | – | – | –
3 | GRGDS [GRGDS peptide] | – | – | – | – | blocking of intact and cleaved OPN-mediated adhesion [3]: blocked both intact and cleaved OPN-mediated adhesion
4 | HMESEELNGA (listed as Homo sapiens) [p6] | partial reduction in invasion | suppressive effect | – | – | –
5 | KKFRRPDIQY (listed as Homo sapiens) [p2] | insignificant effect | – | – | – | –
6 | OPN-5kD: MMP-9 cleavage fragment of OPN, residues 167-210; expressed from FLAG-tagged construct | – | – | decreased migration | decreased adhesion | increase in cellular invasion ([6]; transfected cells, p=0.001): > 2 fold
7 | OPN-24 kD: OPN fragment residues 211-314; expressed from FLAG-tagged construct | – | – | decreased migration | decreased adhesion | cellular invasion compared to vector transfected cells [6]: No significant difference
8 | PDIQYPDATD (listed as Homo sapiens) [p3] | partial reduction in invasion | suppressive effect | – | – | –
9 | full-length OPN: wild-type osteopontin protein (OPN-a) expressed from FLAG-tagged construct | – | – | induced SMMC-7721-SC2 migration | increased adhesion | cellular invasion compared to vector transfected cells [6]: slightly increased invasion
